# Reference: patent US20050176739A1, “Therapeutic agent for eating disorders” (priority 1999, published 2005)
# What was measured:
# [1] = system: Crj:CD (SD) rats; assay: Action of increasing feed intake by 4-week oral administration (Test Example 1); type: in vivo, rat
# Method: Action of Increasing Feed Intake by 4-Week Oral Administration
# Compound 1 was suspended in a 0.5% aqueous methyl cellulose solution to a final concentration of 0.6 mg/mL for 6 mg/kg dose, 3 mg/mL for 30 mg/kg dose, 16 mg/mL for 160 mg/kg dose, or 80 mg/mL for 800 mg/kg dose, and the resulting solution was used.
# Male and female Crj:CD (SD) rats (SPF) at the age of 5 weeks were purchased from Nippon Charles River Co., Ltd., and were then fed and conditioned for 9 days. During the term, their body weight change and conditions were observed, and animals determined as in healthy conditions were used at the test. At the start of the use, the body weights of the male animals were within a range of 187 to 209 g, while those of the female animals were within a range of 147 to 173 g. During both of the conditioning and feeding term and the test term, the animals were fed with a solid feed for mouse and rat (CRF-1 15 kGy, Oriental Yeast Industry, Co., Ltd.) and with water, ad libitum.
# As to the number of the animals used, 15 each of male and female animals were used for each group. As a negative control group, a group administered a 0.5% aqueous methyl cellulose solution alone was prepared. Based on the body weight at the termination of the conditioning and feeding term, the animals were randomly assigned to individual groups, so that the body weights were uniformly distributed among the resulting individual groups.
# Oral administration was selected as the administration route. The solvent or a test compound-containing solution was administered once daily in the morning for 4 weeks in a dose of 1 mL per 100 g of body weight.
# The feed intake of the test animals was measured on days 7, 14, 21 and 28. The measured values were tested for homoscedasticity by the Bartlett's test. When the variance was homogeneous, one-way layout analysis of variance was performed; in the case that significance was observed, herein, the control group and the individual dosed groups were tested by the Dunnett's test. When the variance was not homogeneous, the Kruskal-Wallis's rank test was performed; in the case that significance was observed among the groups, the Dunnett's test was conducted.
# [2] = Body weight change by 4-week oral administration (Test Example 2); type: in vivo, rat
# Method: (§1) Action of Increasing Feed Intake and Body Weight by 4-Week Oral Administration
# (§2) Compound 1 was suspended in a 0.5% aqueous methyl cellulose solution to a final concentration of 20 mg/mL for 200 mg/kg dose or 40 mg/mL for 400 mg/kg dose, and the resulting solution was used.
# (§3) Male and female Crj:CD (SD) rats (SPF) at the age 5 of weeks were purchased from Nippon Charles River Co., Ltd., and were then fed and conditioned for 7 days. During the term, their body weight change and conditions were observed, and animals determined as in healthy conditions were used at the test. At the start of the use, the body weights of the male animals were within a range of 177.4 to 193.6 g, while those of the female animals were within a range of 141.1 to 160.3 g. During both of the conditioning and feeding term and the test term, the animals were fed with a solid feed for mouse and rat [FR-2, Funabashi Agricultural Farm Co., Ltd.] and with water ad libitum.
# (§4) As to the number of the animals used, 5 each of male and female animals were used for each group. As a negative control group, a group administered a 0.5% aqueous methyl cellulose solution alone was prepared. Based on the body weight at the termination of the conditioning and feeding term, the animals were randomly assigned to individual groups, so that the body weights were uniformly distributed among the resulting individual groups.
# (§5) Oral administration was selected as the administration route. The solvent or the test compound was administered once daily in the morning for 4 weeks in a dose of 1 mL per 100 g of body weight.
# (§6) The body weights and feed intake of the test animals were measured on days 0, 7, 14, 21 and 28. The individual measured values were tested, based on the same standards as in the […].
# [3] = system: Crj:CD (SD) rats; assay: Feed intake change by 4-week oral administration (Test Example 2); type: in vivo, rat
# Method: as §1, §2, §3, §4, §5, §6
# [4] = system: dd-strain male mice; assay: Acute toxicity test; type: in vivo, mouse; details: oral administration, mortality seven days after administration
# Text: Test compounds were orally administered to groups of dd-strain male mice weighing 20±1 g, each group consisting of three mice.
# [5] = 4-week oral administration, male and female rats
# [6] = female rats, 200 mg/kg po once daily, day 0
# [7] = female rats, 200 mg/kg po once daily, day 7
# [8] = female rats, 200 mg/kg po once daily, day 14
# [9] = female rats, 200 mg/kg po once daily, day 21
# [10] = female rats, 200 mg/kg po once daily, day 28
# [11] = female rats, 400 mg/kg po once daily, day 0
# [12] = female rats, 400 mg/kg po once daily, day 7
# [13] = female rats, 400 mg/kg po once daily, day 14
# [14] = female rats, 400 mg/kg po once daily, day 21
# [15] = female rats, 400 mg/kg po once daily, day 28
# [16] = male rats, 200 mg/kg po once daily, day 0
# [17] = male rats, 200 mg/kg po once daily, day 7
# [18] = male rats, 200 mg/kg po once daily, day 14
# [19] = male rats, 200 mg/kg po once daily, day 21
# [20] = male rats, 200 mg/kg po once daily, day 28
# [21] = male rats, 400 mg/kg po once daily, day 0
# [22] = male rats, 400 mg/kg po once daily, day 7
# [23] = male rats, 400 mg/kg po once daily, day 14
# [24] = male rats, 400 mg/kg po once daily, day 21
# [25] = male rats, 400 mg/kg po once daily, day 28
smiles,measurement,setting,value
"CCn1c(=O)c2c(nc(/C=C/c3ccc(OC)c(OC)c3)n2C)n(CC)c1=O [Compound 1, (E)-8-(3,4-dimethoxystyryl)-1,3-diethyl-7-methylxanthine]",effect on feed intake (in words),[1]; [5],increased the feed intake both in the males and in the females
same,Feed intake (g ± SD),"[1]; female rats, 6 mg/kg po once daily, day 7",15.93 ± 1.09 g
same,Feed intake (g ± SD),"[1]; female rats, 6 mg/kg po once daily, day 14",18.03 ± 1.37 g
same,Feed intake (g ± SD),"[1]; female rats, 6 mg/kg po once daily, day 21",18.76 ± 1.18 g
same,Feed intake (g ± SD),"[1]; female rats, 6 mg/kg po once daily, day 28",18.80 ± 1.46 g
same,Feed intake (g ± SD),"[1]; female rats, 30 mg/kg po once daily, day 7",17.24 ± 1.19 g
same,Feed intake (g ± SD),"[1]; female rats, 30 mg/kg po once daily, day 14",19.38 ± 1.74 g
same,Feed intake (g ± SD),"[1]; female rats, 30 mg/kg po once daily, day 21",19.93 ± 2.08 g
same,Feed intake (g ± SD),"[1]; female rats, 30 mg/kg po once daily, day 28",20.50 ± 1.96 g
same,Feed intake (g ± SD),"[1]; female rats, 160 mg/kg po once daily, day 7",17.73 ± 1.40 g
same,Feed intake (g ± SD),"[1]; female rats, 160 mg/kg po once daily, day 14",19.56 ± 1.68 g
same,Feed intake (g ± SD),"[1]; female rats, 160 mg/kg po once daily, day 21",20.56 ± 1.73 g
same,Feed intake (g ± SD),"[1]; female rats, 160 mg/kg po once daily, day 28",20.87 ± 2.04 g
same,Feed intake (g ± SD),"[1]; female rats, 800 mg/kg po once daily, day 7",17.30 ± 0.99 g
same,Feed intake (g ± SD),"[1]; female rats, 800 mg/kg po once daily, day 14",19.19 ± 1.44 g
same,Feed intake (g ± SD),"[1]; female rats, 800 mg/kg po once daily, day 21",20.43 ± 1.69 g
same,Feed intake (g ± SD),"[1]; female rats, 800 mg/kg po once daily, day 28",21.13 ± 1.76 g
same,Feed intake (g ± SD),"[1]; male rats, 6 mg/kg po once daily, day 7",21.45 ± 1.28 g
same,Feed intake (g ± SD),"[1]; male rats, 6 mg/kg po once daily, day 14",23.97 ± 1.21 g
same,Feed intake (g ± SD),"[1]; male rats, 6 mg/kg po once daily, day 21",24.96 ± 1.58 g
same,Feed intake (g ± SD),"[1]; male rats, 6 mg/kg po once daily, day 28",25.23 ± 1.80 g
same,Feed intake (g ± SD),"[1]; male rats, 30 mg/kg po once daily, day 7",23.54 ± 2.15 g
same,Feed intake (g ± SD),"[1]; male rats, 30 mg/kg po once daily, day 14",26.12 ± 2.03 g
same,Feed intake (g ± SD),"[1]; male rats, 30 mg/kg po once daily, day 21",27.03 ± 2.07 g
same,Feed intake (g ± SD),"[1]; male rats, 30 mg/kg po once daily, day 28",27.37 ± 2.56 g
same,Feed intake (g ± SD),"[1]; male rats, 160 mg/kg po once daily, day 7",23.94 ± 1.58 g
same,Feed intake (g ± SD),"[1]; male rats, 160 mg/kg po once daily, day 14",26.20 ± 1.77 g
same,Feed intake (g ± SD),"[1]; male rats, 160 mg/kg po once daily, day 21",27.31 ± 1.74 g
same,Feed intake (g ± SD),"[1]; male rats, 160 mg/kg po once daily, day 28",27.81 ± 2.47 g
same,Feed intake (g ± SD),"[1]; male rats, 800 mg/kg po once daily, day 7",22.84 ± 1.81 g
same,Feed intake (g ± SD),"[1]; male rats, 800 mg/kg po once daily, day 14",25.40 ± 2.42 g
same,Feed intake (g ± SD),"[1]; male rats, 800 mg/kg po once daily, day 21",26.67 ± 2.19 g
same,Feed intake (g ± SD),"[1]; male rats, 800 mg/kg po once daily, day 28",27.03 ± 2.37 g
same,effect on body weight (in words),[2]; [5],increased the feed intake and body weight
same,Body weight (g ± SD),[2]; [6],151.0 ± 5.7 g
same,Body weight (g ± SD),[2]; [7],178.6 ± 7.6 g
same,Body weight (g ± SD),[2]; [8],206.0 ± 7.1 g
same,Body weight (g ± SD),[2]; [9],232.5 ± 13.4 g
same,Body weight (g ± SD),[2]; [10],255.7 ± 17.3 g
same,Body weight (g ± SD),[2]; [11],152.9 ± 4.5 g
same,Body weight (g ± SD),[2]; [12],178.1 ± 3.3 g
same,Body weight (g ± SD),[2]; [13],207.8 ± 11.5 g
same,Body weight (g ± SD),[2]; [14],236.5 ± 16.3 g
same,Body weight (g ± SD),[2]; [15],259.3 ± 14.3 g
same,Body weight (g ± SD),[2]; [16],191.2 ± 2.4 g
same,Body weight (g ± SD),[2]; [17],247.3 ± 4.8 g
same,Body weight (g ± SD),[2]; [18],313.5 ± 12.1 g
same,Body weight (g ± SD),[2]; [19],371.5 ± 23.9 g
same,Body weight (g ± SD),[2]; [20],419.2 ± 28.0 g
same,Body weight (g ± SD),[2]; [21],189.5 ± 4.4 g
same,Body weight (g ± SD),[2]; [22],242.5 ± 10.7 g
same,Body weight (g ± SD),[2]; [23],304.8 ± 15.7 g
same,Body weight (g ± SD),[2]; [24],361.9 ± 23.8 g
same,Body weight (g ± SD),[2]; [25],415.6 ± 29.2 g
same,effect on feed intake (in words),[3]; [5],increased the feed intake
same,Feed intake (g ± SD),[3]; [6],13.4 ± 1.7 g
same,Feed intake (g ± SD),[3]; [7],20.2 ± 1.7 g
same,Feed intake (g ± SD),[3]; [8],21.8 ± 1.7 g
same,Feed intake (g ± SD),[3]; [9],20.9 ± 2.6 g
same,Feed intake (g ± SD),[3]; [10],23.8 ± 3.0 g
same,Feed intake (g ± SD),[3]; [11],14.6 ± 1.7 g
same,Feed intake (g ± SD),[3]; [12],19.5 ± 2.2 g
same,Feed intake (g ± SD),[3]; [13],21.1 ± 2.9 g
same,Feed intake (g ± SD),[3]; [14],22.0 ± 2.6 g
same,Feed intake (g ± SD),[3]; [15],24.5 ± 2.5 g
same,Feed intake (g ± SD),[3]; [16],20.1 ± 1.0 g
same,Feed intake (g ± SD),[3]; [17],28.4 ± 1.5 g
same,Feed intake (g ± SD),[3]; [18],29.9 ± 1.6 g
same,Feed intake (g ± SD),[3]; [19],30.2 ± 3.5 g
same,Feed intake (g ± SD),[3]; [20],31.0 ± 1.1 g
same,Feed intake (g ± SD),[3]; [21],20.7 ± 1.2 g
same,Feed intake (g ± SD),[3]; [22],27.9 ± 2.5 g
same,Feed intake (g ± SD),[3]; [23],30.2 ± 3.8 g
same,Feed intake (g ± SD),[3]; [24],30.3 ± 3.9 g
same,Feed intake (g ± SD),[3]; [25],34.8 ± 4.4 g
same,minimum lethal dose (MLD),[4],greater than 1000 mg/kg
"CCn1c(=O)c2c(nc(/C=C/c3cc(OC)c4c(c3)OCO4)n2C)n(CC)c1=O [Compound 3, (E)-1,3-diethyl-8-(3-methoxy-4,5-methylenedioxystyryl)-7-methylxanthine]",melting point,,201.5 to 202.3 °C
